Numbered stars: 1 amine (or outer) side, 2 acyl side, 3 side chain; on linkers, the order of the positions; unused ones are H or OH. Square brackets hold non-standard residues; d marks the D form. Side chains are listed from the residue outwards. Peptide text beside a SMILES is read from it. * marks the point of attachment. γGlu = O=C(O)[C@H](CCC(=O)[*:2])N[*:1]; Palmitoyl = CCCCCCCCCCCCCCCC(=O)*; Aib = CC(C)(N)C(=O)O
Tests used:
human GIP receptor = biological target: T1, human GIP receptor (Homo sapiens, UniProt P48546); experiment: cAMP response (HTRF) of HEK-293 cells stably expressing human GIP receptor; type: cell-based; settings: Table 8; read-out: EC50 hGIP R
T1 construct: expressed in transfected cells; host or cells: HEK-293
T1 sequence (P48546 22-466): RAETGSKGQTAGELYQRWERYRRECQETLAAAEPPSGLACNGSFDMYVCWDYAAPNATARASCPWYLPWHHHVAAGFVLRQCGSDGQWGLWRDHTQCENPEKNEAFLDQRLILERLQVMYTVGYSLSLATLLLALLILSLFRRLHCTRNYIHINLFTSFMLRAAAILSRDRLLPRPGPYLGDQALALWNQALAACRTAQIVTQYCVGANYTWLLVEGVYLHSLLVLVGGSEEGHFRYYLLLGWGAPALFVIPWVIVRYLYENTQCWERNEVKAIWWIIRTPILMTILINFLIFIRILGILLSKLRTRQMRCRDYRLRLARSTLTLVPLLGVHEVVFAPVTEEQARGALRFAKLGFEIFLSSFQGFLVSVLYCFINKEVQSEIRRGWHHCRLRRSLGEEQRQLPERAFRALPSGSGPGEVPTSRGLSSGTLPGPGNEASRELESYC
How it was run: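 HEK-293 cells stably expressing human GIP receptor were incubated with compound for 30 min at room temperature in HBSS/20 mM HEPES/0.1% BSA with 2 mM IBMX. cAMP was measured by HTRF (665/616 nm ratio) after 1 h with detection reagents in lysis buffer; EC50 is the concentration giving 50% of maximal response.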

human glucagon receptor = biological target: T2, human glucagon receptor (Homo sapiens, UniProt P47871); experiment: cAMP response (HTRF) of HEK-293 cells stably expressing human glucagon receptor; type: cell-based; settings: Table 8; read-out: EC50 hGlucagon R
T2 construct: expressed in transfected cells; host or cells: HEK-293
Experimental: cAMP content of cells was determined using a kit from Cisbio Corp. (cat. no. 62AM4PEJ) based on HTRF (Homogenous Time Resolved Fluorescence). For preparation, cells were split into T175 culture flasks and grown overnight to near confluency in medium (DMEM/10% FBS). Medium was then removed and cells washed with PBS lacking calcium and magnesium, followed by proteinase treatment with accutase (Sigma-Aldrich cat. no. A6964). Detached cells were washed and resuspended in assay buffer (1×HBSS; 20 mM HEPES, 0.1% BSA, 2 mM IBMX) and cellular density determined. They were then diluted to 400000 cells/ml and 25 μl-aliquots dispensed into the wells of 96-well plates. For measurement, 25 μl of test compound in assay buffer was added to the wells, followed by incubation for 30 minutes at room temperature.
Potencies of peptidic compounds at the GLP-1, glucagon and GIP receptors were determined by exposing cells expressing human glucagon receptor (hGlucagon R), human GIP receptor (hGIP-R) or human GLP-1 receptor (hGLP-1 R) to the listed compounds at increasing concentrations and measuring the formed cAMP as described in Methods.

T2 sequence (P47871 26-477): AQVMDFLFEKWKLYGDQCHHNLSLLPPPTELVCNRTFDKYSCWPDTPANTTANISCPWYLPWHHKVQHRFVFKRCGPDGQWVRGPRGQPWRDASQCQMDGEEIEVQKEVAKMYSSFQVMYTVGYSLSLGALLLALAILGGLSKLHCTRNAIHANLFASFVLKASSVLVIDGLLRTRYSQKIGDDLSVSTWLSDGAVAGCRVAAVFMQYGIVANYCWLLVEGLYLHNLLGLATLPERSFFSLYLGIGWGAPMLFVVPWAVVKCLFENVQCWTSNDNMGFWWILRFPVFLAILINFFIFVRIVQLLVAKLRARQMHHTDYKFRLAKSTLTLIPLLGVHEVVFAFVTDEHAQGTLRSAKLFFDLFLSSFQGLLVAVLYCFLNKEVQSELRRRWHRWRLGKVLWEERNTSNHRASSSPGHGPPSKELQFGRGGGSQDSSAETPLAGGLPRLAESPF

SMILES	EC50 (human GIP receptor) [pM]	EC50 (human glucagon receptor) [pM]
CCCCCCCCCCCCCCCC(=O)N[C@@H](CCC(=O)N[C@@H](CCC(=O)NCCCC[C@H](NC(=O)[C@H](CC(C)C)NC(=O)[C@H](CCCCN)NC(=O)[C@H](CO)NC(=O)[C@H](CC(C)C)NC(=O)[C@H](CC(=O)O)NC(=O)[C@H](CO)NC(=O)[C@@H](NC(=O)[C@H](Cc1ccccc1)NC(=O)[C@@H](NC(=O)CNC(=O)[C@H](Cc1c[nH]cn1)NC(=O)C(C)(C)NC(=O)[C@@H](N)Cc1c[nH]cn1)[C@@H](C)O)[C@@H](C)O)C(=O)N[C@@H](CCC(=O)O)C(=O)N[C@@H](CCC(=O)O)C(=O)N[C@@H](CCC(N)=O)C(=O)N[C@@H](CCCNC(=N)N)C(=O)N[C@@H](CCC(N)=O)C(=O)NC(C)(C)C(=O)N[C@@H](CCC(=O)O)C(=O)N[C@@H](Cc1ccccc1)C(=O)N[C@H](C(=O)N[C@@H](CCC(=O)O)C(=O)N[C@@H](Cc1c[nH]c2ccccc12)C(=O)N[C@@H](CC(C)C)C(=O)N[C@@H](CCCCN)C(=O)N[C@@H](C)C(=O)NCC(=O)NCC(=O)N[C@@H](Cc1c[nH]cn1)C(=O)N1CCC[C@H]1C(=O)N[C@@H](CO)C(=O)NC(C)(C)C(=O)N[C@@H](CCCCN)C(=O)N1CCC[C@H]1C(=O)N1CCC[C@H]1C(=O)N1CCC[C@H]1C(=O)N[C@@H](CCCCN)C(N)=O)[C@@H](C)CC)C(=O)O)C(=O)O [SEQ ID NO: 12, H-Aib-H-G-T-F-T-S-D-L-S-K-L-K[gGlu-gGlu-Palm]-E-E-Q-R-Q-Aib-E-F-I-E-W-L-K-A-G-G-H-P-S-Aib-K-P-P-P-K-NH2]	1.9	2
CCCCCCCCCCCCCCCC(=O)N[C@@H](CCC(=O)N[C@@H](CCC(=O)NCCCC[C@H](NC(=O)[C@H](CC(C)C)NC(=O)[C@H](CCCCN)NC(=O)[C@H](CO)NC(=O)[C@H](CC(C)C)NC(=O)[C@H](CC(=O)O)NC(=O)[C@H](CO)NC(=O)[C@@H](NC(=O)[C@H](Cc1ccccc1)NC(=O)[C@@H](NC(=O)CNC(=O)[C@H](Cc1c[nH]cn1)NC(=O)C(C)(C)NC(=O)[C@@H](N)Cc1c[nH]cn1)[C@@H](C)O)[C@@H](C)O)C(=O)N[C@@H](CCC(=O)O)C(=O)N[C@@H](CCC(=O)O)C(=O)N[C@@H](CCC(N)=O)C(=O)N[C@@H](CCCNC(=N)N)C(=O)N[C@@H](CCC(N)=O)C(=O)NC(C)(C)C(=O)N[C@@H](CCC(=O)O)C(=O)N[C@@H](Cc1ccccc1)C(=O)N[C@H](C(=O)N[C@@H](CCC(=O)O)C(=O)N[C@@H](Cc1c[nH]c2ccccc12)C(=O)N[C@@H](CC(C)C)C(=O)N[C@@H](CCCCN)C(=O)N[C@@H](C)C(=O)N[C@H](C)C(=O)NCC(=O)N[C@@H](Cc1c[nH]cn1)C(=O)N1CCC[C@H]1C(=O)N[C@@H](CO)C(=O)NC(C)(C)C(=O)N[C@@H](CCCCN)C(=O)N1CCC[C@H]1C(=O)N1CCC[C@H]1C(=O)N1CCC[C@H]1C(=O)N[C@@H](CCCCN)C(N)=O)[C@@H](C)CC)C(=O)O)C(=O)O [SEQ ID NO: 13, H-Aib-H-G-T-F-T-S-D-L-S-K-L-K[gGlu-gGlu-Palm]-E-E-Q-R-Q-Aib-E-F-I-E-W-L-K-A-dAla-G-H-P-S-Aib-K-P-P-P-K-NH2] (H-H[Aib]HGTFTSDLSKLK([γGlu-γGlu-Palmitoyl])EEQRQ[Aib]EFIEWLKA[dA]GHPS[Aib]KPPPK-NH2)		2.1

Source: patent US10538567B2, “Compounds as peptidic trigonal GLP1/glucagon/GIP receptor agonists” (priority 2016, dated 2020)
